Data as given in publication PMC10076671, “Spider venom-derived peptide JZTX-14 prevents migration and invasion of breast cancer cells via inhibition of sodium channels” (Frontiers in Pharmacology, 2023).
Like-named read-outs stand apart in the source and are kept apart here. Where a SMILES comes first, the peptide text is derived from it. Bridges are numbered along the chain shown (N, C = ends).

What was measured:
Nav1.5 [1] = format: cell-based; conditions: 50 ms depolarisation to −30 mV, holding potential −100 mV, room temperature (22°C–25°C), mean ± SEM
Description: Sodium currents in experimental cells were recorded at room temperature (22°C–25°C) using an EPC-10 patch-clamp amplifier (HEKA, Germany) in a whole-cell patch-clamp configuration. Recording pipettes were made from borosilicate glass capillaries (VWR, United States) using a PC-10 puller (Narishige, Japan). The inner solution (mM): KCl 130, NaCl 15, CaCl2 0.37, MgCl2 1 EGTA 1, HEPES 10, pH 7.2, resistance was measured as 1.8 MO. The outer solution was composed of (mM): NaCl 140, KCl 3, MgCl2 1, CaCl2 1, HEPES 10, pH 7.2. To minimize voltage errors, the series resistance compensation was set to 80%. The P/4 protocol was used to subtract the linear capacitance and leakage current. Experimental data were acquired and analyzed using the pulse fit 8.0 program (HEKA, Germany). The needed concentrations of toxin dissolved in external solution were applied to the cell surface by microinjector.
To determine the biological activity of synthetic and natural JZTX-14 on Nav1.5, we observed their effects on HEK293T cells heterologously expressing Nav1.5 using a whole-cell voltage-clamp configuration. The current traces were induced by a 50 ms depolarisation potential of −30 mV at a holding potential of −100 mV. Currents were recorded by adding 0.1 μM and 0.5 μM of JZTX-14 to the solution.

MDA-MB-231 cells = assay: Quantitative real-time PCR validation of migration and invasion-related genes; format: cell-based, human; conditions: JZTX-14-treated MDA-MB-231 cells
Nav1.5 [2] = conditions: HEK293 cells heterologously expressing Nav1.5; ref Zhang et al., 2018; cited from earlier work

## CC[C@H](C)[C@H](NC(=O)[C@@H]1CSSC[C@@H]2NC(=O)[C@@H]3CCCN3C(=O)[C@@H]3CCCN3C(=O)[C@H](CCC(N)=O)NC(=O)CNC(=O)[C@@H]3CCCN3C(=O)[C@H](Cc3c[nH]cn3)NC(=O)[C@@H]3CSSC[C@H](NC(=O)[C@H](C)NC(=O)[C@H](CC(C)C)NC(=O)CNC(=O)[C@H](CO)NC(=O)[C@H](CSSC[C@H](NC(=O)CN)C(=O)N[C@@H](CCC(N)=O)C(=O)N[C@@H](CCCCN)C(=O)N[C@@H](Cc4ccccc4)C(=O)N[C@@H](Cc4ccccc4)C(=O)N[C@@H](Cc4c[nH]c5ccccc45)C(=O)N[C@@H]([C@@H](C)O)C(=O)N3)NC2=O)C(=O)N[C@@H]([C@@H](C)O)C(=O)N[C@@H](Cc2c[nH]c3ccccc23)C(=O)N2CCC[C@H]2C(=O)N[C@@H]([C@@H](C)O)C(=O)N[C@@H](CCC(=O)O)C(=O)N[C@@H]([C@@H](C)CC)C(=O)N1)C(=O)N[C@@H](CC(C)C)C(N)=O [JZTX-14] (H-GCQKFFWTCHPGQPPCCSGLACTWPTEICIL-NH2; disulfide 2-17, 9-22, 16-29)
Nav1.5 [1]; 0.1 μM, listed as Synthetic JZTX-14, 0.1 µM
  Inhibition of Nav1.5 current: 30.3% ± 2.5%
Nav1.5 [1]; 0.5 μM, listed as Synthetic JZTX-14, 0.5 µM
  Inhibition of Nav1.5 current: 53.4% ± 2.5%
MDA-MB-231 cells
  ANGPTL4 expression (qPCR): downregulated
  FBXO2 expression (qPCR): downregulated
  GJB3 expression (qPCR): downregulated
  HMGN5 expression (qPCR): downregulated
  IL-24-F expression (qPCR): upregulated
  PLAC1 expression (qPCR): downregulated
  S100A4 expression (qPCR): downregulated
  SERPINB2 expression (qPCR): upregulated
Nav1.5 [2]
  Inhibition of Nav1.5 function: effectively inhibits
